Laboratory results from article PMC5382161 (Frontiers in Microbiology, 2017).
In brackets after ≈: the same amount, converted by molar mass. Read-outs that look alike come from different tables or passages of the source.

Tests used:
[1] = test system: Mycobacterium smegmatis mc^2 155; assay: microbe, parasite or virus in culture; type: cell-based
[2] = test system: FtsZ localization in M. smegmatis mc^2 155; assay: FtsZ localization by immunofluorescence microscopy; type: cell-based, Mycobacterium smegmatis; settings: late logarithmic phase cells grown with compound for 4 h
Protocol: The effect of coumarins on the Z-ring formation of M. smegmatis was determined with immunofluoresence microscopy using anti-FtsZ antibodies (Dziedzic et al., [2010]). Late logarithmic phase cells were grown in the presence and absence of coumarins for 4 h. The cells were fixed with formaldehyde washed with phosphate buffer, and immuno-stained with polyclonal anti-FtsZ rabbit antibody (GeneTeX, USA) overnight at 4°C. Alexa fluor (488) goat anti-rabbit secondary antibody (Invitrogen, USA) was used for visualizing Z-rings. The nuclear material was visualized by using an anti-mountant containing DAPI. The cells were visualized in 63 X objective using a Carl-Zeiss fluorescence Microscope (Axio Imager 2 for Life Science Research, Germany). The images were visualized and processed using ZEN image processing software.

M. smegmatis mc^2 155 = assay: Bacterial cell length by bright field microscopy; type: cell-based, Mycobacterium smegmatis
MtbFtsZ = target: T1, MtbFtsZ (Mycobacterium tuberculosis, UniProt P9WN95); type: biochemical
T1 construct: inferred from pET15 vector and Ni-NTA purification; made in house; host or cells: E. coli BL21 (DE3) Rosetta
T1 sequence (P9WN95 1-379): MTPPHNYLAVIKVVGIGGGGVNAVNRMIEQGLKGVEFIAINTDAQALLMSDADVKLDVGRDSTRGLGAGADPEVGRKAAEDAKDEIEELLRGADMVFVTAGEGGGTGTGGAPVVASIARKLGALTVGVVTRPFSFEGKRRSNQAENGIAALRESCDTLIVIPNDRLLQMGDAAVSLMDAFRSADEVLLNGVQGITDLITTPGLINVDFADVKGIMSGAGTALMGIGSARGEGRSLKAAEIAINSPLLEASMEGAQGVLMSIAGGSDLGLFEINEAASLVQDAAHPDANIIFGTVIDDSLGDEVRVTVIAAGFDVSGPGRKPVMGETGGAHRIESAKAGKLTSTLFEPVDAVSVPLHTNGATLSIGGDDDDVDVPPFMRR

MtbFtsZ wild type [3] = target: T2, MtbFtsZ wild type (Mycobacterium tuberculosis, UniProt P9WN95); type: biochemical
T2 construct: inferred from pET15 vector and Ni-NTA purification; made in house; host or cells: E. coli BL21 (DE3) Rosetta
T2 sequence (P9WN95 1-379): T1 sequence (P9WN95 1-379)

MtbFtsZ wild type [4] = target: T2, MtbFtsZ wild type; type: biochemical; remark: listed apart in the source
bacteria = test system: bacteria; set-up: method as in Jaiswal et al., 2007; Bhattacharya et al., 2013; settings: ref Jaiswal et al., 2007; Bhattacharya et al., 2013; cited from earlier work
[5] = test system: Mycobacterium tuberculosis H37Rv; set-up: method as in Rezayan et al., 2012; Upadhyay et al., 2012; settings: ref Rezayan et al., 2012, Upadhyay et al.; cited from earlier work
[6] = Mycolicibacterium smegmatis, MC^2155, 48 h, M. smegmatis mc^2 155, MABA, 37°C, 48 h, read-out: MIC
[7] = Mycolicibacterium smegmatis, MC^2155, 48 h
[8] = M. smegmatis mc^2 155, MABA, 37°C, 48 h

## O=c1cc(O)c2ccccc2o1 [4-Hydroxycoumarin]
[1]; [6]
  MIC: 150 ± 7.4 µM (≈ 24.4 µg/mL)

## Cc1cc(=O)oc2cc(O)ccc12 [4-Methylumbelliferone]
[1]; [6]
  MIC: 42.5 ± 2.4 µM (≈ 7.49 µg/mL)

## Cc1ccc2oc(=O)ccc2c1 [6-Methylcoumarin]
[1]; [6]
  MIC: 46.8 ± 4.3 µM (≈ 7.5 µg/mL)

## CCN(CC)c1ccc2c(C)cc(=O)oc2c1 [7-Diethylamino-4-methylcoumarin]
[1]; [7]
  MIC: 70.2 ± 6.2 µM (≈ 16.2 µg/mL)

## Cc1cc(=O)oc2cc(N(C)C)ccc12 [7-Dimethyl-4-methylcoumarin]
[2]
  FtsZ localization (immunofluorescence): localization of MtbFtsZ was disrupted
M. smegmatis mc^2 155; cells treated with 50 μM, versus untreated cells
  increase of bacterial length: 4 fold
M. smegmatis mc^2 155; cells treated with 50 μM, untreated 4.48 ± 1.25 μm
  maximum bacterial length: 15.2 ± 3.5 μm
MtbFtsZ
  protofilament formation (TEM): did not allow the formation of network for a protofilament
[1]; [8]
  MIC: 36.8 ± 7.1 µM (≈ 7.48 µg/mL)
[1]; M. smegmatis mc^2 155, MABA, 37°C, 48 h, listed as 7-Dimethyl-4-methyl coumarin, read-out: MIC
  MIC: 36.8 µM (≈ 7.48 µg/mL)
[1]; [6]
  MIC: 38.7 µM (≈ 7.87 µg/mL)

## COc1ccc2cc3[n+](cc2c1OC)CCc1cc2c(cc1-3)OCO2 [Berberine]
MtbFtsZ wild type [3]
  inhibition of the GTPase activity of the protein: 75% ± 2.5
MtbFtsZ wild type [4]
  inhibition of the polymerization activity of the protein: 82% ± 1.4

## O=c1ccc2ccccc2o1 [Coumarin]
[1]; [6]
  MIC: 214 ± 8.7 µM (≈ 31.2 µg/mL)

## O=c1ccc2ccc(O)c(O)c2o1 [Daphnetin]
[1]; [7]
  MIC: 48.2 ± 6.3 µM (≈ 8.59 µg/mL)

## O=c1oc2c(O)c(O)cc3c(=O)oc4c(O)c(O)cc1c4c23 [Ellagic acid]
[1]; [8]
  MIC: 50 ± 2.4 µM (≈ 15.1 µg/mL)
[1]; M. smegmatis mc^2 155, MABA, 37°C, 48 h, listed as ellagic acid, read-out: MIC
  MIC: 50 µM (≈ 15.1 µg/mL)
[1]; [6]
  MIC: 25 µM (≈ 7.55 µg/mL)

## O=c1ccc2cc(O)c(O)cc2o1 [Esculetin]
M. smegmatis mc^2 155
  increase of bacterial length: 4 fold
  maximum bacterial length: 17.85 ± 4.5 μm
MtbFtsZ
  protofilament formation (TEM): did not allow the formation of network for a protofilament
[1]; [7]
  MIC: 48.2 ± 5.7 µM (≈ 8.59 µg/mL)

## CC1=CC(=O)c2c(O)cccc2C1=O [Plumbagin]
bacteria
  increase of the length of bacteria: 7 fold

## CO[C@H]1/C=C/O[C@@]2(C)Oc3c(C)c(O)c4c(O)c(c(/C=N/N5CCN(C)CC5)c(O)c4c3C2=O)NC(=O)/C(C)=C\C=C\[C@H](C)[C@H](O)[C@@H](C)[C@@H](O)[C@@H](C)[C@H](OC(C)=O)[C@@H]1C [Rifampicin, reference compound]
[1]; [6]
  MIC: 3.9 µM (≈ 3.21 µg/mL)

## CC(C)c1c(O)ccc2c1CC[C@H]1C(C)(C)CCC[C@]21C [Totarol]
MtbFtsZ wild type [3]
  inhibition of the GTPase activity of the protein: 68% ± 3.1
MtbFtsZ wild type [4]
  inhibition of the polymerization activity of the protein: 74% ± 2
bacteria
  increase of the length of bacteria: 5 fold

## O=c1ccc2ccc(O)cc2o1 [Umbelliferone]
[5]
  MIC: 58.3 µg/mL (≈ 360 µM)
[1]; [7]
  MIC: 46.2 ± 3.2 µM (≈ 7.49 µg/mL)

## COc1cc2ccc(=O)oc2cc1O [scopoletin, reference compound]
[5]
  MIC: 42 µg/mL (≈ 219 µM)

## [H]/N=C(/N)N[C@H]1[C@H](O)[C@@H](O)[C@H](O[C@@H]2O[C@@H](C)[C@](O)(C=O)[C@H]2O[C@@H]2O[C@@H](CO)[C@H](O)[C@@H](O)[C@@H]2NC)[C@@H](N/C(N)=N\[H])[C@@H]1O [streptomycin, reference compound]
[1]; [6]
  MIC: 11.2 µM (≈ 6.5 µg/mL)
